# Source: ChEMBL document CHEMBL5506050, “Discovery of Oral AMP-Activated Protein Kinase Activators for Treating Hyperlipidemia” (J Med Chem, 2024)
# Active and inactive are the calls of the source. The calls are words filed in the database; no cut-off is given here.
# Tests used:
# [1] = Apparent permeability across apical to basal side in human Caco-2 cells at 21 uM incubated for 2 hrs by LC-MS/MS analysis; type: ADME, cell-based
# Syrian golden hamster [2] = experiment: Lipid lowering effect on high-fat diet-fed golden hamster assessed as decrease in TG level in liver at 100 to 200 mg/kg, po qd administered via gavage measured after 4 weeks; type: functional, organism-based; settings: Mesocricetus auratus, dose 100-200 mg/kg
# [3] = Stability in human liver microsomes assessed as drug metabolism at 1 uM measured after 5 mins in presence of NADPH by LC-MS/MS analysis; type: ADME, Microsome; settings: read-out: Drug metabolism
# [4] = target: Voltage-gated inwardly rectifying potassium channel KCNH2 (Homo sapiens, UniProt Q12809); experiment: Inhibition of hERG; type: toxicity
# Homo sapiens [5] = organism: Homo sapiens; experiment: Downregulation of serum TC level in human at 2000 mg bid for 7 days; type: functional; settings: time 7.0 day
# Mus musculus [6] = experiment: Effect on Dhcr7 mRNA level in liver of diet-induced obese C57BL/6 mouse model harboring AMPKalpha LS-/- at 200 mg/kg, po for 4 weeks by GO analysis; type: functional, organism-based
# Mus musculus [7] = experiment: Effect on Ctgf mRNA level in liver of diet-induced obese C57BL/6 mouse model harboring AMPKalpha LS-/- at 200 mg/kg, po for 4 weeks by GO analysis; type: functional, organism-based
# Rhesus monkey [8] = experiment: Lipid lowering effect in Rhesus monkey assessed as decrease in blood LDL-C level at 35 mg/kg, NG qd treated for 35 days followed by drug washout for 14 days relative to control; type: functional, Macaca mulatta; parameters: scale not given: the % may be the effect or the level left; settings: time 35 day
# Syrian golden hamster [9] = experiment: Effect on liver weight in high-fat diet-fed golden hamster at 50 to 200 mg/kg, po qd administered via gavage measured after 4 weeks; type: functional, organism-based; settings: Mesocricetus auratus, dose 50-200 mg/kg
# Mus musculus [10] = experiment: Downregulation of Sdf2l1 mRNA level in liver of high-fat diet-fed C57BL/6 mouse model at 200 mg/kg, po for 4 weeks by GO analysis; type: functional, organism-based
# Mus musculus [11] = experiment: Lipid lowering effect on high-fat diet-fed C57BL/6J mouse assessed as decrease in serum LDL-C level at 20 mg/kg/day, po administered via gavage measured after 7 days relative to control; type: functional; parameters: scale not given: the % may be the effect or the level left; settings: time 7 day
# Mus musculus [12] = experiment: Downregulation of Cidea mRNA level in liver of high-fat diet-fed C57BL/6 mouse model at 200 mg/kg, po for 4 weeks by GO analysis; type: functional, organism-based
# [13] = Efflux ratio of apparent permeability across basal to apical side over apical to basal side in human Caco-2 cells at 2 uM incubated for 2 hrs by LC-MS/MS analysis; type: ADME, cell-based
# Syrian golden hamster [14] = experiment: Lipid lowering effect on high-fat diet-fed golden hamster assessed as decrease in serum LDL-C level at 200 mg/kg, po qd administered via gavage measured after 4 weeks relative to control; type: functional, Mesocricetus auratus; parameters: scale not given: the % may be the effect or the level left
# Mus musculus [15] = experiment: Downregulation of Mvd mRNA level in liver of high-fat diet-fed C57BL/6 mouse model at 200 mg/kg, po for 4 weeks by GO analysis; type: functional, organism-based
# [16] = target: AMP-activated protein kinase (AMPK) alpha-1/beta-1/gamma-1 (Homo sapiens) (UniProt P54619+Q9Y478+Q13131); experiment: Activation of AMPK alpha1/AMPKbeta1/AMPKgamma1 (unknown origin) using SAMS peptide as substrate at; type: protein-complex assay; settings: filed as activator, dose < 70.3 µM, time 20.0 min
# [17] = Acute toxicity in golden hamster assessed as intense toxic response at 20 g/Kg, po measured for 14 days; type: organism-based, Mesocricetus auratus; settings: in vivo, 20000 mg/kg, 336 h, time 14 day
# Mus musculus [18] = experiment: Effect on Syvn1 mRNA level in liver of diet-induced obese C57BL/6 mouse model harboring AMPKalpha LS-/- at 200 mg/kg, po for 4 weeks by GO analysis; type: functional, organism-based
# Mus musculus [19] = experiment: Effect on Gadd45a mRNA level in liver of diet-induced obese C57BL/6 mouse model harboring AMPKalpha LS-/- at 200 mg/kg, po for 4 weeks by GO analysis; type: functional, organism-based
# Mus musculus [20] = experiment: Lipid lowering effect on high-fat diet-fed Kunming mouse assessed as serum total cholesterol level at 50 mg/kg, po qd via gavage for 7 days consecutively (reference value: 159.3 +/- 11.5 mg/dl); type: functional; settings: time 7 day
# Mus musculus [21] = experiment: Downregulation of Pparg mRNA level in liver of high-fat diet-fed C57BL/6 mouse model at 200 mg/kg, po for 4 weeks by GO analysis; type: functional, organism-based
# [22] = Efflux ratio of apparent permeability across basal to apical side over apical to basal side in human Caco-2 cells at 21 uM incubated for 2 hrs by LC-MS/MS analysis; type: ADME, cell-based
# [23] = Tmax in male Rhesus monkey at 70 mg/kg, po or 7 mg/kg, iv measured for 36 hrs by LC-tandem MS analysis; type: ADME, organism-based, Macaca mulatta; settings: in vivo
# Mus musculus [24] = experiment: Downregulation of Mogat1 mRNA level in liver of high-fat diet-fed C57BL/6 mouse model at 200 mg/kg, po for 4 weeks by GO analysis; type: functional, organism-based
# Syrian golden hamster [25] = experiment: Lipid lowering effect on high-fat diet-fed golden hamster assessed as decrease in TC level in liver at 100 to 200 mg/kg, po qd administered via gavage measured after 4 weeks; type: functional, organism-based; settings: Mesocricetus auratus, dose 100-200 mg/kg
# Homo sapiens [26] = organism: Homo sapiens; experiment: Downregulation of serum LDL-C level in human at 2000 mg bid for 7 days; type: functional; settings: time 7.0 day
# Mus musculus [27] = experiment: Effect on Lepr mRNA level in liver of diet-induced obese C57BL/6 mouse model harboring AMPKalpha LS-/- at 200 mg/kg, po for 4 weeks by GO analysis; type: functional, organism-based
# Syrian golden hamster [28] = experiment: Lipid lowering effect on high-fat diet-fed golden hamster assessed as decrease in serum TC level administered orally once daily via gavage measured after 4 weeks; type: functional, organism-based; settings: Mesocricetus auratus, dose 50-200 mg/kg, route po
# Mus musculus [29] = experiment: Upregulation of Gadd45b mRNA level in liver of high-fat diet-fed C57BL/6 mouse model at 200 mg/kg, po for 4 weeks by GO analysis; type: functional, organism-based
# Rhesus monkey [30] = experiment: Lipid lowering effect in Rhesus monkey assessed as LDL-C level at 35 mg/kg, NG qd treated for 35 days followed by drug washout for 14 days; type: functional, Macaca mulatta; settings: time 35 day
# Erythrocyte = experiment: In vivo induction of AMPK phosphorylation in erythrocytes of human at 2000 mg measured after 5 to 12 hrs by ELISA; type: functional, organism-based; settings: time 5-12 hrs
# Mus musculus [31] = experiment: Effect on Pparg mRNA level in liver of diet-induced obese C57BL/6 mouse model harboring AMPKalpha LS-/- at 200 mg/kg, po for 4 weeks by GO analysis; type: functional, organism-based
# Mus musculus [32] = experiment: Upregulation of Gadd45a mRNA level in liver of high-fat diet-fed C57BL/6 mouse model at 200 mg/kg, po for 4 weeks by GO analysis; type: functional, organism-based
# Mus musculus [33] = experiment: Effect on Mogat1 mRNA level in liver of diet-induced obese C57BL/6 mouse model harboring AMPKalpha LS-/- at 200 mg/kg, po for 4 weeks by GO analysis; type: functional, organism-based
# Syrian golden hamster [34] = experiment: Effect on body weight gain in high-fat diet-fed golden hamster at 50 to 200 mg/kg, po qd administered via gavage measured after 4 weeks; type: functional, organism-based; settings: Mesocricetus auratus, dose 50-200 mg/kg
# Mus musculus [35] = experiment: Downregulation of Dhcr7 mRNA level in liver of high-fat diet-fed C57BL/6 mouse model at 200 mg/kg, po for 4 weeks by GO analysis; type: functional, organism-based
# Chain of Voltage-gated inwardly rectifying potassium channel KCNH2 (Q12809 whole entry): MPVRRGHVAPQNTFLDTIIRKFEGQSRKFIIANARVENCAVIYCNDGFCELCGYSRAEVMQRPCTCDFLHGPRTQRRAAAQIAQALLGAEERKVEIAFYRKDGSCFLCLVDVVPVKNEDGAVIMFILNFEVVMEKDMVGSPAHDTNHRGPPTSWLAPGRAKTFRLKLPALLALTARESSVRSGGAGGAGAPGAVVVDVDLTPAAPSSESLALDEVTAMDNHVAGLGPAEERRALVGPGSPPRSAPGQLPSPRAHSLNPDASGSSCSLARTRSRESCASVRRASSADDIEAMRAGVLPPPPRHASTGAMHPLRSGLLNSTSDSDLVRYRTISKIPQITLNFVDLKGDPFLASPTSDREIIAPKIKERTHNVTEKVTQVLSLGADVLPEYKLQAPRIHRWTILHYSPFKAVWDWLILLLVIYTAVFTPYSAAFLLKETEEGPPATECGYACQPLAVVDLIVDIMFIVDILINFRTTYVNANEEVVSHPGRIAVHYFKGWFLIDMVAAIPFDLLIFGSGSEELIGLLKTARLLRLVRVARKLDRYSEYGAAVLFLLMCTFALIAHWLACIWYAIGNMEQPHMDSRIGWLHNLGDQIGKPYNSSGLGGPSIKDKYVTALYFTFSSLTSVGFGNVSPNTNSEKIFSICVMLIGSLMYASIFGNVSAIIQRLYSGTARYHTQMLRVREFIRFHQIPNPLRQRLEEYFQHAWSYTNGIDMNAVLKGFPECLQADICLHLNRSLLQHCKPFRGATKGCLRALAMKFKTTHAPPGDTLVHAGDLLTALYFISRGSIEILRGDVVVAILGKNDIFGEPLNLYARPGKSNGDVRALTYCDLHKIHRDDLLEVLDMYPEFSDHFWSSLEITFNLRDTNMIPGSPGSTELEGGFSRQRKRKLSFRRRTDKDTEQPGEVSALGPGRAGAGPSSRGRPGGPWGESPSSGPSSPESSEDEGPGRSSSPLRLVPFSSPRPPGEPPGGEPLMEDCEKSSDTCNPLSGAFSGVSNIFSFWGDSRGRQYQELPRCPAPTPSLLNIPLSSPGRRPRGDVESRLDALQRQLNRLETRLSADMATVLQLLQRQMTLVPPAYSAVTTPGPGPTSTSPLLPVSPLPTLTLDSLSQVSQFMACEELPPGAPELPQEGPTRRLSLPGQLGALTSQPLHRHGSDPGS
# Chain of AMP-activated protein kinase (AMPK) alpha-1/beta-1/gamma-1 (Homo sapiens) (P54619 whole entry): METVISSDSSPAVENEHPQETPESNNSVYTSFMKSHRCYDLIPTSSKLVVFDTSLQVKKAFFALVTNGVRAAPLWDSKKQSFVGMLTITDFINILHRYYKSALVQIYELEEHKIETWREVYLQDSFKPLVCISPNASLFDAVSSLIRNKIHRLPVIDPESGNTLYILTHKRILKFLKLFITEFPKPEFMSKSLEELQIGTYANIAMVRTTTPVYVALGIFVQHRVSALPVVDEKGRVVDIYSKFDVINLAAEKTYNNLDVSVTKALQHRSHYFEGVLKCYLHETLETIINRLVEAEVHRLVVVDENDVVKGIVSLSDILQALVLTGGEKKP
# Chain of AMP-activated protein kinase (AMPK) alpha-1/beta-1/gamma-1 (Homo sapiens) (Q13131 whole entry partner): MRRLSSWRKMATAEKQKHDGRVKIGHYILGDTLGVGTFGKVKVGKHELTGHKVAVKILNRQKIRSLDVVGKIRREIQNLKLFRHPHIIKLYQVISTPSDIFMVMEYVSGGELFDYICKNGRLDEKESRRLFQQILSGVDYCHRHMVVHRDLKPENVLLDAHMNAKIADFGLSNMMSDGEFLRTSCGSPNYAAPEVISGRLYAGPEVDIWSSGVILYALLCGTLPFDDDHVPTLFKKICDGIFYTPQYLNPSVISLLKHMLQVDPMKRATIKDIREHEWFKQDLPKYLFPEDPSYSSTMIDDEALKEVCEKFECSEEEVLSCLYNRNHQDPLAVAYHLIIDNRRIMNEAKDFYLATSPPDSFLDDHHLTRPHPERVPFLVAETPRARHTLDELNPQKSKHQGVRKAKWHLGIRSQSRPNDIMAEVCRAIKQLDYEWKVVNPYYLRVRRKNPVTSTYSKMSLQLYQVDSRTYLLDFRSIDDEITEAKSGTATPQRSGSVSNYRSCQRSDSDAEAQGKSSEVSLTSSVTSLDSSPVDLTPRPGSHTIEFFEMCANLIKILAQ
# Chain of AMP-activated protein kinase (AMPK) alpha-1/beta-1/gamma-1 (Homo sapiens) (Q9Y478 2-270 partner limits assumed): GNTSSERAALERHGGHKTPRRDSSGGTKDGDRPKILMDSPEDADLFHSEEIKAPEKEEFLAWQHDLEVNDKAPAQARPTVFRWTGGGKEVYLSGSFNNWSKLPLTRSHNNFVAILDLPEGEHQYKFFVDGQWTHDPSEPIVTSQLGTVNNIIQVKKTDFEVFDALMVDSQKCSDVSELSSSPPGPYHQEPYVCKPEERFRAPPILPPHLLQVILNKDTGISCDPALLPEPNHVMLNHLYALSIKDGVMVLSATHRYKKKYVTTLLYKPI
smiles,measurement,setting,value
CC(=O)OC[C@H]1O[C@@H](n2cnc3c(Nc4cccc(O)c4)ncnc32)[C@H](OC(C)=O)[C@@H]1OC(C)=O,"Papp A→B at 2 h, 21 µM",[1],8 ×10⁻⁶ cm/s
same,Activity,Syrian golden hamster [2],Active
same,"metabolised at 5 min, 1 µM",[3],> 80%
same,IC50,[4],> 30 µM
same,Activity,Homo sapiens [5],Active
same,Activity,Mus musculus [6],inactive
same,Activity,Mus musculus [7],inactive
same,Activity,Rhesus monkey [8],11.93%
same,Activity,Syrian golden hamster [9],inactive
same,Activity,Mus musculus [10],Active
same,Activity,Mus musculus [11],22.2%
same,Activity,Mus musculus [12],Active
same,"efflux ratio at 2 h, 2 µM",[13],2.1
same,Activity,Syrian golden hamster [14],42%
same,Activity,Mus musculus [15],Active
same,Activity,[16],Active
same,Activity,[17],Non-Toxic
same,Activity,Mus musculus [18],inactive
same,Activity,Mus musculus [19],inactive
same,Activity,Mus musculus [20],151.7 mg/dL
same,Activity,Mus musculus [21],Active
same,"efflux ratio at 2 h, 21 µM",[22],1.9
same,Tmax,[23],1.5 h
same,Activity,Mus musculus [24],Active
same,Activity,Syrian golden hamster [25],Active
same,Activity,Homo sapiens [26],Active
same,Activity,Mus musculus [27],inactive
same,Activity,Syrian golden hamster [28],Dose-Dependent Effect
same,Activity,Mus musculus [29],Active
same,Activity,Rhesus monkey [30],1.25 mmol/L
same,Activity,Erythrocyte,Active
same,Activity,Mus musculus [31],inactive
same,Activity,Mus musculus [32],Active
same,Activity,Mus musculus [33],inactive
same,Activity,Syrian golden hamster [34],inactive
same,Activity,Mus musculus [35],Active
